We go through seven molecules from paper PMC2762729 (Biochemistry, 2009).

The test system of assay [1] is saporin-L1. The settings on record: pH 7.8; cited from earlier work.
Assay [2] has as its system 35-mer synthetic SRL mimic with GAGA tetraloop. The conditions noted are these: cited from earlier work.
The subject of assay [3] is saporin-L1. The format is biochemical, Saponaria officinalis.
Assay [4] addresses T1, saporin-L1 (Saponaria officinalis, UniProt Q2QEH4). The format is biochemical. The settings on record: read-out: EC50, rescue of translation; n = 3.
The target of assay [5] is T1, saporin-L1. As to the kind of experiment: Competitive inhibition of A-10 RNA.
In assay [6] the target is T1, saporin-L1. Nature of the assay: Competitive inhibition of A-10 RNA. The source holds these as a separate data set.
Assay [7] relates to saporin-L1. The format is biochemical, Saponaria officinalis. The source holds these as a separate data set.

The term Km denotes the concentration of substrate that gives half-maximal velocity. One may read the kcat as the maximal rate divided by the concentration of active sites. The Ki is a measure of affinity in units of concentration, obtained from inhibition or displacement. Usually EC50 stands for the concentration that produces a half-maximal response.

Entries after “also recorded” stand apart in the source; their conditions may differ. Read-outs that look alike come from different tables or passages of the source.

T1 sequence (Q2QEH4 22-280 limits assumed): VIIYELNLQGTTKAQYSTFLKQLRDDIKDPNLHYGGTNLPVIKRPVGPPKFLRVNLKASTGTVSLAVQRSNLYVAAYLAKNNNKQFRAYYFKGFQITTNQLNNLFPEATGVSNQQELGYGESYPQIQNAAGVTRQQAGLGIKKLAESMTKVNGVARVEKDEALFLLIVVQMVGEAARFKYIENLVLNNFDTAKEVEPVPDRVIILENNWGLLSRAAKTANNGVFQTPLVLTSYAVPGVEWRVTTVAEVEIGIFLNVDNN

For the molecule poly(A), in the assay with saporin-L1 [1], the Km was 639 ± 32 µM and the kcat is 1.02 ± 0.017 s⁻¹.
For the molecule gelonin, in assay [2], the “activity (in words)” value is “no detectable activity”.
Turning to `Nc1ncnc2c(CN3C[C@H](CO)[C@@H](O)C3)c[nH]c12` [9-DA, 9-deazaadenine-9-methylene-N-hydroxypyrrolidine], the “inhibition of saporin-L1 (in words)” value with saporin-L1 [3] is listed as “not an inhibitor; also recorded: poor inhibitor”. For the same molecule, the Ki on saporin-L1 [3] (read-out: Ki (no slow onset observed)) was more than 500000 nM.
Take trichosanthin: the “activity (in words)” value in assay [2] is on record as “no detectable activity”.
For `CO[C@@H]1[C@H](OP(=O)(O)OCCCO)[C@@H](COP(=O)(O)O[C@H]2CN(Cc3c[nH]c4c(N)ncnc34)C[C@@H]2COP(=O)(O)OCCCO)O[C@H]1n1cnc2c(=O)[nH]c(N)nc21` [s3(9-DA)Gs3 2′-OMe], the EC50 at saporin-L1 [4] was 36 nM. The same molecule registered a Ki at saporin-L1 [5] of 6.4 ± 1.7 nM.
The molecule `Nc1ncnc2c(CN3C[C@H](CO)[C@@H](O)C3)c[nH]c12` [9-DA, 9-deazaadenine-9-methylene-N-hydroxypyrrolidine (DADMeA)] registered a Ki at saporin-L1 [6] of more than 500000 nM.
As to 5′-CGCGAGAGCG-3′ [A-10 RNA], in the assay on saporin-L1 [7], the “Km, fold lower with saporin-L1 than with saporin-S6” value is recorded as 4 fold; the “Km, fold tighter than poly(A) RNA” value is recorded as 4.5 fold; the “kcat/Km, fold increased catalytic efficiency over poly(A) RNA” value is reported as 45 fold; the “kcat/Km, fold more efficient with saporin-L1 than with saporin-S6” value is given as 4,800 fold. In the assay on saporin-L1 [7] (pH 7.7), the Km amounted to 95 ± 7 µM and the kcat came to 7.33 ± 0.267 s⁻¹.
